Laboratory results taken from patent publication US7405317B2, “Phosphate-bearing prodrugs of sulfonyl hydrazines as hypoxia-selective antineoplastic agents” (priority 2004, dated 2008).

Columns and labels:
[1] = tested on: CHO-SCS-II (non-transfected parental line); assay: Aerobic/hypoxic cell survival, parental CHO cells; assay type: cell-based; settings: drug 10 μM
Procedure: EMT6 or CHO (parental or human cytochrome P-450 reductase transfected) cells, seeded in glass milk dilution bottles, were gassed for 2 hours through a rubber septum fitted with 13 gauge (inflow) and 18 gauge (outflow) needles with a mixture of 5% CO2, oxygen at various concentrations, with the balance of the mixture made up of nitrogen, to establish various hypoxic conditions. Drugs were then injected without disrupting hypoxia. After two hours, cells were collected and plated in a clonogenic assay to determine the surviving fraction, compared to untreated controls.
For in vitro analysis, KS119W must be converted to KS119OH (1) in an AP-catalyzed reaction shown above in FIG. 2, as the phosphorylated parent drug cannot cross cell membranes. KS119OH is then used in all subsequent in vitro studies shown in this section.
Like KS119, cytochrome P-450 reductase can activate KS1190H under hypoxic conditions.

[2] = tested on: EMT-6 murine mammary carcinoma; assay type: in vivo, mice; settings: EMT6/BLAB-c Mice; dose VNP40541 85-115 mpk, VNP40551 55-85 mpk
Procedure: (§1) The anti-tumor effects of aforementioned prodrugs are evaluated in both solid and liquid tumor models, including the B16-F10 murine melanoma, HTB177 human lung carcinoma models, DLD1 human colon carcinoma, EMT-6 murine mammary gland carcinoma, L1210 murine leukemia, lymphoma, prostate cancer, pancreatic cancer, and head-and-neck cancer. The prodrugs are given intravenously, orally, or intraperitoneally at doses from 10 mg/kg to 2000 mg/kg; they are give at different dosing schedules such as 4 times daily, once daily, or once every several days for up to 60 doses. Testing tumor cells were implanted subcutaneously into mice, which were randomized into groups immediately after tumor cell implantation (Day 0). Mice were injected intraperitoneally (ip) with either a bolus injection of 0.1 mL PBS or drug. The treatment was carried out in a designed dosing schedule. Tumor measurement in three dimensions was determined once a week with the formula L×H×W/2, where L, H, and W represent length, height, and width, respectively.
(§2) Efficacy of KS119 was studied in murine tumor model and human xenograft models. EMT-6 murine mammary carcinoma cells (3×10^5 cells/mouse) were implanted subcutaneously into Balb/c mice. H460 human lung carcinoma cells, HT29 human colon carcinoma cells and SHP77 human lung carcinoma cells were established as solid xenografts in nu/nu CD-1 mice and Scid/Beige mice with 7×10^7 cells/mouse, respectively. After implantation, tumors were allowed to grow to a size of 150 to 200 mm^3 before starting treatment with KS119. KS119 was formulated in a solvent containing polyethylene glycol 300 (PEG), ethyl alcohol, citric acid, and ascorbic acid.
(§3) Efficacies of KS119W and KS119 were compared with equivalence molar doses in EMT-6 tumor and H460 tumor models. KS119W was formulated with 0.25M sodium bicarbonate solution. The treatment was started when tumors researched 150 to 200 mm^3, and lasted up to 2 weeks. KS119 at doses of 80 and 100 mg/kg and KS119W at doses of 97.6 and 121.3 mg/kg were daily administrated into mice via ip injection. […] To assess the toxicity of treatment, body weight and peripheral blood cell count were monitored after treatment.
(§4) Combined therapy of KS119W with cytoxan (CTX) was evaluated by using KS119W at dose below the MTD in combination with nontoxic dose of CTX against EMT-6 murine mammary carcinoma and H460 human lung carcinoma in CD-1 nude mice. The tumors were allowed to grow to a size of approximately 200 mm^3. In H460 tumor model, the animals received either with 4 doses 180 mg/kg and 1 dose 240 mg/kg of KS119 or CTX at dose of 100 mg/kg per dose per animal, ip injecting the drugs on 15, 22, 27, 34 and 43 days after the tumor implantation. In the combination studies, CTX was given two hours after dosing KS119W.

[3] = tested on: H460 human lung carcinoma; assay type: in vivo, mice; settings: H460/Nude Mice; dose VNP40541 80-140 mpk, VNP40551 40-80 mpk
Procedure: as §1, §2, §3, §4

[4] = Maximum tolerated dose (MTD) finding; assay type: in vivo, mice
Procedure: In order to fairly select a better compound from two enantiomers of KS119W for future clinical development, finding maximum tolerated dose (MTD) for VNP40541 (R-form) and VNP40551 (S-form) was conducted and the results were shown as Table 3.

C[C@@H](OC(=O)N(N(CCCl)S(C)(=O)=O)S(C)(=O)=O)c1ccc([N+](=O)[O-])c(OP(=O)(O)O)c1 [VNP40541]
Surviving fraction at 0.1% oxygen ([1]; 0.1% oxygen): 0.04737 | Surviving fraction in air ([1]; air): 1.086 | Inhibition (%) [2]: 58-69% | Inhibition (%) [3]: 52-80% | MTD ([4]; BALB/c mice, × 5): 100 mpk | MTD ([4]; Nude CD-1 mice, × 10): 140 mpk | MTD ([4]; Scid/Beige mice, × 8): 110 mpk
